# Experimental data taken from article PMC7562719, “Discovery of a CNS penetrant small molecule SMN2 splicing modulator with improved tolerability for spinal muscular atrophy” (Scientific Reports, 2020).
# Tested on: SMN protein
# Experiment: SMN protein in iPSC-derived motor neurons (HTRF, western blot)
# Format: cell-based, human
# Conditions: iPSC-derived motor neurons (GM24468), 3 days
# Procedure: GM03813 fibroblasts and GM24468-derived MNs were seeded at 1.5 × 10^4 and 4 × 10^4 cells/well in 96-well plates and were treated with TEC-1 or SMN-C3 for 72 h at the concentration of 0.01, 0.03, 0.1, 0.3, 1, or 3 µM. After 72 h exposure of compound, GM24468 derived MNs and GM03813 fibroblasts were washed once with D-PBS (-), lysed with RIPA buffer (Wako) containing cOmplete (Sigma-Aldrich) and PhosSTOP (Sigma-Aldrich). The lysates were spun at 15,000 rpm for 15 min at 4 °C, and the supernatants were collected. The protein concentration was quantified with BCA kit (Wako). The lysates, adjusted to have the same protein amount, were mixed with NuPAGE LDS sample buffer containing DTT and heated at 95 °C for 5 min. Except for HTT detection, each sample (2 µg total protein/lane) was loaded Perfect NT Gel 7.5–15% gel (DRC, Japan) and run at 150 V for 60–70 min with Tris/glycine/SDS running buffer (BIO-RAD, USA). […] After washing with TBS-T four times, chemiluminescence signals were detected by Immunostar Zeta (Wako) and LAS-4000 (GE healthcare). […]
# SMN protein concentration of the cells were quantified using an SMN HTRF kit[15] […] The fluorescence emission was read at two different wavelengths (665 nm and 620 nm or 615 nm) using an Envision plate reader (PerkinElmer, USA) excited by 320 nm. The concentration of protein in each cell lysate were measured by BCA kit (BIO-RAD) and used for normalization.
compound,measurement,value
"Cc1cn2nc(-c3nc4ccc(N5CCN(C)CC5)cc4c(=O)[nH]3)cc2c(C)n1 [TEC-1, 2-(4,6-dimethylpyrazolo[1,5-a]pyrazin-2-yl)-6-(4-methylpiperazin-1-yl)quinazolin-4(3H)-one]",concentration that increased SMA protein,100 nM
